In PubChem BioAssay (NCI):
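Growth conditions: 96-well plates. Treatment: test compound, 48 hours, 5 concentrations. Analysis: linear interpolation between bracketing concentrations; unreached endpoints set to highest concentration. At the GI50, growth is halved. TGI: concentration producing complete growth inhibition.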

What was measured:
Assay in all cases: NCI tumour cell line growth inhibition, 48 h
786-0 renal = test system: 786-0 renal
A498 renal = test system: A498 renal
A549 NSCLC = test system: A549 NSCLC
ACHN renal = test system: ACHN renal
BT-549 breast = test system: BT-549 breast
CAKI-1 renal = test system: CAKI-1 renal
CCRF-CEM leukemia = test system: CCRF-CEM leukemia
COLO 205 colon = test system: COLO 205 colon
DU-145 prostate = test system: DU-145 prostate
EKVX NSCLC = test system: EKVX NSCLC
HCC-2998 colon = test system: HCC-2998 colon
HCT-116 colon = test system: HCT-116 colon
HCT-15 colon = test system: HCT-15 colon
HL-60(TB) leukemia = test system: HL-60(TB) leukemia
HOP-62 NSCLC = test system: HOP-62 NSCLC
HOP-92 NSCLC = test system: HOP-92 NSCLC
HS 578T breast = test system: HS 578T breast
HT29 colon = test system: HT29 colon
IGROV1 ovarian = test system: IGROV1 ovarian
K-562 leukemia = test system: K-562 leukemia
KM12 colon = test system: KM12 colon
LOX IMVI melanoma = test system: LOX IMVI melanoma
M14 melanoma = test system: M14 melanoma
MALME-3M melanoma = test system: MALME-3M melanoma
MCF7 breast = test system: MCF7 breast
MDA-MB-231 breast = test system: MDA-MB-231 breast
MDA-MB-435 = test system: MDA-MB-435
MOLT-4 leukemia = test system: MOLT-4 leukemia
NCI-H226 lung = test system: NCI-H226 lung

CSC1=Nc2c(c(C)c(-c3ccccc3)n2CCCCl)C2=NC(=O)CN12
GI50 (786-0 renal): 8.57 µM | TGI (786-0 renal): 61.7 µM | GI50 (A498 renal): 3.89 µM | TGI (A498 renal): 15 µM | GI50 (A549 NSCLC): 7.68 µM | TGI (A549 NSCLC): 65.8 µM | GI50 (ACHN renal): 9.48 µM | TGI (ACHN renal): 37.7 µM | GI50 (BT-549 breast): 4.93 µM | TGI (BT-549 breast): 35.6 µM | GI50 (CAKI-1 renal): 4.6 µM | TGI (CAKI-1 renal): 28.1 µM | GI50 (CCRF-CEM leukemia): 5.08 µM | TGI (CCRF-CEM leukemia): > 100 µM | GI50 (COLO 205 colon): 4.13 µM | TGI (COLO 205 colon): 15.2 µM | GI50 (DU-145 prostate): 11.5 µM | TGI (DU-145 prostate): 26.7 µM | GI50 (EKVX NSCLC): 6.89 µM | TGI (EKVX NSCLC): 31 µM | GI50 (HCC-2998 colon): 4.52 µM | TGI (HCC-2998 colon): 19.7 µM | GI50 (HCT-116 colon): 3.19 µM | TGI (HCT-116 colon): 47.7 µM | GI50 (HCT-15 colon): 4.11 µM | TGI (HCT-15 colon): 21.4 µM | GI50 (HL-60(TB) leukemia): 3.41 µM | TGI (HL-60(TB) leukemia): > 100 µM | GI50 (HOP-62 NSCLC): 11 µM | TGI (HOP-62 NSCLC): 63.1 µM | GI50 (HOP-92 NSCLC): 11.5 µM | TGI (HOP-92 NSCLC): 37 µM | GI50 (HS 578T breast): 6.3 µM | TGI (HS 578T breast): 35 µM | GI50 (HT29 colon): 3.85 µM | TGI (HT29 colon): 19.5 µM | GI50 (IGROV1 ovarian): 3.59 µM | TGI (IGROV1 ovarian): 21.1 µM | GI50 (K-562 leukemia): 5.77 µM | TGI (K-562 leukemia): > 100 µM | GI50 (KM12 colon): 4.2 µM | TGI (KM12 colon): 18.7 µM | GI50 (LOX IMVI melanoma): 4.13 µM | TGI (LOX IMVI melanoma): 17.6 µM | GI50 (M14 melanoma): 3.32 µM | TGI (M14 melanoma): 15.2 µM | GI50 (MALME-3M melanoma): 8.38 µM | TGI (MALME-3M melanoma): 23.5 µM | GI50 (MCF7 breast): 3.42 µM | TGI (MCF7 breast): 16.5 µM | GI50 (MDA-MB-231 breast): 5.64 µM | TGI (MDA-MB-231 breast): 23.8 µM | GI50 (MDA-MB-435): 2.03 µM | TGI (MDA-MB-435): 4.65 µM | GI50 (MOLT-4 leukemia): 3.93 µM | TGI (MOLT-4 leukemia): > 100 µM | GI50 (NCI-H226 lung): 11 µM
